Results on two compounds are retold here after US11426415B2, “Treatment for Wolfram syndrome and other endoplasmic reticulum stress disorders” (Washington University, priority 2017, dated 2022).

One data set deals with mouse model of SCA. As to conditions: given with a RyR inhibitor; cited from earlier work.
The test system of a further data set is WFS1 gene knockout mice. As to the kind of experiment: Motor function study, 90° inclined screen test. The format is in vivo. As to conditions: i.p. 15 mg/kg/day, 5 days per week, 6 weeks, vs control mice, FIG. 11. The protocol: WFS1 gene knockout mice, a mouse model of Wolfram syndrome, were treated with JTV519 (i.p. injections, 15 mg/kg/day, 5 days per week) or saline after they become 6 weeks old for 6 weeks (5 female mice for each group). Littermate wild-type control mice were treated by saline (VEH) for 6 weeks (3 female mice). Motor functions of the WFS1 knockout were evaluated using a 90° inclined screen test.
For the 90° inclined screen test, each mouse was placed on top of an elevated (47 cm above the floor) wire mesh grid (16 squares per 10 cm) that was inclined to 90°. Each mouse was placed in the middle of the screen with its head oriented down and was timed for how long it remained on the screen and how long it took to climb to the top of the screen.

The subject of a further data set is INS-1 823/13 cells. As to the kind of experiment: Thapsigargin-mediated cell death (caspase 3/7-Glo luminescence). The format is cell-based. As to conditions: pretreated 24 hours, then 0.5 nM thapsigargin overnight; FIGS. 7-9. An excerpt: (§1) A Caspase 3/7 assay (Promega, Madison, Wis.) was utilized to measure caspase-3 and -7 activities in various cell lines. The assay provides a proluminescent caspase-3/7 substrate, which contains the tetrapeptide sequence DEVD. This caspase-3/7 substrate can be added directly to cell lysates. The substrate is cleaved to release an aminoluciferin, which is a substrate for luciferase used in the production of light. The signal is proportional to caspase-3/7 activity. The stabilized luciferase and proprietary buffer system improve assay performance across a wide range of assay conditions, and the assay is less likely to be affected by compound interference unlike fluorescent- or colorimetric-based assays
The pathway leading to calpain-2 activation provides potential therapeutic targets for Wolfram syndrome, such as leakage of ER calcium to the cytosol. To test this concept, a small-scale screen was performed to identify chemical compounds that could prevent cell death mediated by thapsigargin, a known inhibitor for ER calcium ATPase. INS-1 823/13 cells were pretreated with […] in media containing 0.5 nM of thapsigargin (TG) overnight. Apoptosis was detected by caspase 3/7-Glo luminescence.

Data set [1] in a line: Pharmacokinetic study of JTV519 in CD1 mice (UPLC-MS/MS). The format is in vivo. As to conditions: for AUC(0-inf) / Cmax / half-life / Kp: CD-1 mouse; for Kp: read-out: AUC ratio (with plasma). The protocol:
To study the pharmacokinetics of JTV519, the compound was synthesized as the HCl salt and formulated as a clear solution in 20% HP-β-CD in saline and intraperitoneally injected into CD1 mice. Samples of blood and pancreas tissue and whole brain and heart organs were collected from the mice and analyzed.
An ultra-performance liquid chromatography-tandem mass spectrometry (UPLC-MS/MS) method was developed to determine sample concentrations in the samples. Mass spectrometric analysis was performed on a Waters Xevo TQ-S triple quadrupole instrument using electrospray ionization in positive mode with the selected reaction monitoring (SRM). The MS/MS parameters were optimized by infusion compounds. The separation was performed on an Acquity BEH C18 column (50×2.1 mm, 1.7μ) using a Waters Acquity UPLC system with 0.6 mL/min flow rate and gradient elution. The column temperature was maintained at 60° C. The calibration standards (1.0-5000 ng/mL) and quality control samples were prepared in the blank mouse plasma. 10 μL plasma samples were mixed with 200 μL internal standard in acetonitrile to precipitate proteins in a 96-well plate. 1.0 μL supernatant was injected for the UPLC-MS/MS analysis

The subject of data set [2] is WFS1 depleted INS-1 832/13 cells. Description: Cell death in WFS1 depleted INS-1 832/13 cells (Caspase 3/7 activation). The format is cell-based. As to conditions: pretreated 24 h with various concentrations, then DOX 48 h to deplete WFS1; FIGS. 3 and 4.
Text: as §1
INS-1 832/13 cells in which WFS1 expression could be depleted by doxycycline (DOX)-inducible expression of shWFS1 were pretreated with or without various concentrations of JTV519 or oxidized JTV519 for 24 h and then treated with DOX for 48 h to deplete WFS1 and induce cell death. Apoptosis was measured by monitoring Caspase 3/7 activation.

In a further data set the test system is INS-1E cells. As to the kind of experiment: Cytokine-induced cell death in INS-1E cells (caspase 3/7 activity assay). It is filed as cell-based. As to conditions: 1 μM-50 μM for 24 hours, then IL-1β and IFN-γ 50 ng/ml for 24 hours; FIG. 10.
Text: as §1
To determine whether JTV519 can prevent ER calcium depletion and confer protection against ER stress-mediated cell death in a cell model of type 1 diabetes. INS-1E cells were pre-treated with 1 μM-50 μM of JTV519 for 24 hours then stressed for 24 hours with cytokines (IL-1β and IFN-γ 50 ng/ml). Apoptotic cell death was measured via caspase 3/7 activity assay. […] Data are expressed as mean±SEM from three independent experiments. *p<0.05 compared to cytokine treated cells unpaired t-test.

A further data set deals with INS-1 832/13 cells. As to the kind of experiment: Cytosolic calcium levels by Fura-2AM in INS-1 832/13 cells challenged with thapsigargin. It is filed as cell-based. As to conditions: range of concentrations, thapsigargin 1 μM added, FIGS. 5 and 6. The protocol: INS-1 832/13 cells were treated with JTV519 or JTV519-oxidized over a range of concentrations. Cytoplasmic calcium levels were measured by Fura-2AM calcium indicator over a period of minutes. Thapsigargin (1 μM) was added at the time point indicated by an arrow (n=6, the experiment was repeated 6 independent times) on FIGS. 5 and 6.

Setting [3] is: conclusion from the pharmacokinetic study.

SMILES strings stand for the structures. Like-named read-outs stand apart in the source and are kept apart here.

Regarding `O=C1CN(/N=C/c2ccc(-c3ccc([N+](=O)[O-])cc3)o2)C(=O)[N-]1.[Na+]` [Dantrolene, 1-[[5-(4-nitrophenyl)-2-furyl]methylideneamino]imidazolidine-2,4-dione], the “age dependent deficit of motor coordination” value in the data set with mouse model of SCA is “ameliorated the age dependent deficit of motor coordination”.

In the case of `COc1ccc2c(c1)CN(C(=O)CCN1CCC(Cc3ccccc3)CC1)CCS2` [JTV519, 3-(4-benzyl-1-piperidinyl)-1-(7-methoxy-2,3-dihydro-1,4-benzothiazepin-4(5H)-yl)-1-propanone], in the data set on WFS1 gene knockout mice, the “motor functions (time to reach the top of the screen)” value is “improved motor functions”. Further, the “thapsigargin mediated cell death (apoptosis, caspase 3/7-Glo)” value in the data set on INS-1 823/13 cells is listed as “did not significantly suppress thapsigargin mediated cell death”. In data set [1] (brain, ip 30 mg/kg, n = 3), the AUC(0-inf) amounted to 10100 ng·h/mL, the highest level (Cmax) was 5130 ng/mL, the half-life is 5.1 h and the Kp was 2.9. Moreover, in data set [1] (setting [3]), the permeability result was “good” and the solubility entry is given as “good”. The “blood brain barrier passage” value in data set [1] (conclusion from the pharmacokinetic study, ip 30 mg/kg, mice) was “passed the blood brain barrier”. Also, in data set [1] (heart, ip 30 mg/kg, n = 3), the AUC(0-inf) stood at 29200 ng·h/mL, the highest level (Cmax) was 14300 ng/mL, the half-life was 4 h and the Kp worked out at 8.4. Moreover, in data set [1] (pancreas, ip 30 mg/kg, n = 3), the AUC(0-inf) is 146000 ng·h/mL, the peak level (Cmax) was 105000 ng/mL, the half-life is 4.5 h and the Kp was found to be 42. In data set [1] (plasma, ip 30 mg/kg), the total exposure AUC(0-inf) came to 3460 ng·h/mL and the half-life was 7.1 h. In addition, the Cmax in data set [1] (plasma, ip 30 mg/kg, HCl salt in 20% HP-β-CD in saline) was 1810 ng/mL. Further, the “cell death (apoptosis, Caspase 3/7 activation)” value in data set [2] is “suppress cell death”. The “cytokine-induced cell death (caspase 3/7 activity)” value with INS-1E cells is recorded as “protects INS-1E cells from cytokine-induced cell death”. Further, in the data set with INS-1 832/13 cells, the cytosolic calcium levels entry was “decreased cytosolic calcium levels”.

The AUC(0-inf) is total exposure, with the tail of the curve extrapolated. Low readings indicate low exposure, high ones high exposure. One may read the Cmax as the peak of the concentration-time curve. For orientation: half-life means how long it takes for the measured level to halve. Lower therefore signals fast loss.
